From patent US20230085307A1, “PYRIDAZINONE COMPOUND AND HERBICIDE” (NISSAN CHEMICAL CORPORATION, priority 2019, published 2023)

Experiments:
[1] = tested on: lambsquarters; assay: Test Example 5: herbicidal effect by foliage application, plastic box (Table 20, symbol O); format: in vivo, lambsquarters (Chenopodium album); conditions: amount of applied herbicide 320 g/ha; foliage application after 14-day growth; evaluated three weeks after application
Procedure, shortened: (§1)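 Plants sown in sterilized diluvial soil and grown 14 days in a greenhouse at 25° C to 30° C, then sprayed on the foliage with the compound's emulsion diluted in water to a predetermined herbicide amount. Injury to weeds and crops scored three weeks after application on a visual rating scale.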

[2] = tested on: blackgrass; assay: Test Example 4: herbicidal effect by soil treatment (Table 19, symbol J); format: in vivo, blackgrass (Alopecurus myosuroides); conditions: amount of applied herbicide 320 g/ha
Procedure, shortened: (§2)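 Seeds were sown in sterilized diluvial soil and covered with about 1.5 cm of soil. An emulsion formulation diluted with water to a predetermined herbicide amount was sprayed evenly onto the soil surface. Plants grew in a greenhouse at 25° C. to 30° C., and the effect was scored three weeks after application using criteria from an earlier test.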

[3] = tested on: barnyard grass; assay: Test Example 5: herbicidal effect by foliage application, plastic box (Table 20, symbol H); format: in vivo, barnyard grass (Echinochloa crus-galli); conditions: amount of applied herbicide 320 g/ha; foliage application after 14-day growth; evaluated three weeks after application
Procedure, shortened: as §1

[4] = tested on: redroot pigweed; assay: Test Example 5: herbicidal effect by foliage application, plastic box (Table 20, symbol N); format: in vivo, redroot pigweed (Amaranthus retroflexus); conditions: amount of applied herbicide 320 g/ha; foliage application after 14-day growth; evaluated three weeks after application
Procedure, shortened: as §1

[5] = tested on: barnyard grass; assay: Test Example 4: herbicidal effect by soil treatment (Table 19, symbol H); format: in vivo, barnyard grass (Echinochloa crus-galli); conditions: amount of applied herbicide 320 g/ha
Procedure, shortened: as §2

[6] = tested on: wild oat; assay: Test Example 4: herbicidal effect by soil treatment (Table 19, symbol I); format: in vivo, wild oat (Avena fatua); conditions: amount of applied herbicide 320 g/ha
Procedure, shortened: as §2

[7] = tested on: chickweed; assay: Test Example 5: herbicidal effect by foliage application, plastic box (Table 20, symbol P); format: in vivo, common chickweed (Stellaria media); conditions: amount of applied herbicide 320 g/ha; foliage application after 14-day growth; evaluated three weeks after application
Procedure, shortened: as §1

[8] = tested on: lambsquarters; assay: Test Example 4: herbicidal effect by soil treatment (Table 19, symbol O); format: in vivo, lambsquarters (Chenopodium album); conditions: amount of applied herbicide 320 g/ha
Procedure, shortened: as §2

[9] = tested on: late watergrass; assay: Test Example 1: herbicidal activity, application before weed generation under submerged conditions (Table 16, symbol A); format: in vivo, late watergrass (Echinochloa oryzicola); conditions: amount of applied herbicide 320 g/ha
Procedure, shortened: (§3)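 Submerged Wagner pots (alluvial soil, 4 cm water) sown with weed seeds and planted with 2.5-leaf rice seedlings; emulsifiable concentrate diluted in water applied to water surface on sowing day. Held in greenhouse at 25-30 °C; injury scored 0-5 by herbicidal rate after three weeks.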

[10] = tested on: chickweed; assay: Test Example 4: herbicidal effect by soil treatment (Table 19, symbol P); format: in vivo, common chickweed (Stellaria media); conditions: amount of applied herbicide 320 g/ha
Procedure, shortened: as §2

[11] = tested on: windgrass; assay: Test Example 5: herbicidal effect by foliage application, plastic box (Table 20, symbol L); format: in vivo, windgrass (Apera spica-venti); conditions: amount of applied herbicide 320 g/ha; foliage application after 14-day growth; evaluated three weeks after application
Procedure, shortened: as §1

[12] = tested on: persian speedwell; assay: Test Example 5: herbicidal effect by foliage application, plastic box (Table 20, symbol R); format: in vivo, Persian speedwell (Veronica persica); conditions: amount of applied herbicide 320 g/ha; foliage application after 14-day growth; evaluated three weeks after application
Procedure, shortened: as §1

[13] = tested on: Italian ryegrass; assay: Test Example 4: herbicidal effect by soil treatment (Table 19, symbol K); format: in vivo, Italian ryegrass (Lolium multiflorum); conditions: amount of applied herbicide 320 g/ha
Procedure, shortened: as §2

[14] = tested on: wild oat; assay: Test Example 5: herbicidal effect by foliage application, plastic box (Table 20, symbol I); format: in vivo, wild oat (Avena fatua); conditions: amount of applied herbicide 320 g/ha; foliage application after 14-day growth; evaluated three weeks after application
Procedure, shortened: as §1

[15] = tested on: southern crabgrass; assay: Test Example 5: herbicidal effect by foliage application, plastic box (Table 20, symbol F); format: in vivo, southern crabgrass (Digitaria ciliaris); conditions: amount of applied herbicide 320 g/ha; foliage application after 14-day growth; evaluated three weeks after application
Procedure, shortened: as §1

[16] = tested on: blackgrass; assay: Test Example 5: herbicidal effect by foliage application, plastic box (Table 20, symbol J); format: in vivo, blackgrass (Alopecurus myosuroides); conditions: amount of applied herbicide 320 g/ha; foliage application after 14-day growth; evaluated three weeks after application
Procedure, shortened: as §1

[17] = tested on: redroot pigweed; assay: Test Example 4: herbicidal effect by soil treatment (Table 19, symbol N); format: in vivo, redroot pigweed (Amaranthus retroflexus); conditions: amount of applied herbicide 320 g/ha
Procedure, shortened: as §2

[18] = tested on: velvetleaf; assay: Test Example 5: herbicidal effect by foliage application, plastic box (Table 20, symbol M); format: in vivo, velvetleaf (Abutilon theophrasti); conditions: amount of applied herbicide 320 g/ha; foliage application after 14-day growth; evaluated three weeks after application
Procedure, shortened: as §1

[19] = tested on: Japanese bulrush; assay: Test Example 1: herbicidal activity, application before weed generation under submerged conditions (Table 16, symbol B); format: in vivo, Japanese bulrush (Schoenoplectus juncoides); conditions: amount of applied herbicide 320 g/ha
Procedure, shortened: as §3

[20] = tested on: southern crabgrass; assay: Test Example 4: herbicidal effect by soil treatment (Table 19, symbol F); format: in vivo, southern crabgrass (Digitaria ciliaris); conditions: amount of applied herbicide 320 g/ha
Procedure, shortened: as §2

[21] = tested on: oval-leafed pondweed; assay: Test Example 1: herbicidal activity, application before weed generation under submerged conditions (Table 16, symbol C); format: in vivo, oval-leafed pondweed (Monochoria vaginalis); conditions: amount of applied herbicide 320 g/ha
Procedure, shortened: as §3

[22] = tested on: velvetleaf; assay: Test Example 4: herbicidal effect by soil treatment (Table 19, symbol M); format: in vivo, velvetleaf (Abutilon theophrasti); conditions: amount of applied herbicide 320 g/ha
Procedure, shortened: as §2

[23] = tested on: rice flat sedge; assay: Test Example 3: herbicidal effect by foliage application, Wagner pot (Table 18, symbol E); format: in vivo, rice flat sedge (Cyperus iria); conditions: 320 g/ha
Procedure, shortened: (§4)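 Plants were sown in alluvial soil held under 0.1–0.5 cm standing water and grown 14 days in a greenhouse at 25–30 °C. An emulsifiable formulation, water-diluted to the set dose, was then sprayed onto the foliage, and effects were scored three weeks later using previously defined criteria.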

[24] = tested on: green foxtail; assay: Test Example 4: herbicidal effect by soil treatment (Table 19, symbol G); format: in vivo, green foxtail (Setaria viridis); conditions: amount of applied herbicide 320 g/ha
Procedure, shortened: as §2

[25] = tested on: windgrass; assay: Test Example 4: herbicidal effect by soil treatment (Table 19, symbol L); format: in vivo, windgrass (Apera spica-venti); conditions: amount of applied herbicide 320 g/ha
Procedure, shortened: as §2

[26] = tested on: barnyard grass; assay: Test Example 3: herbicidal effect by foliage application, Wagner pot (Table 18, symbol H); format: in vivo, barnyard grass (Echinochloa crus-galli); conditions: 320 g/ha
Procedure, shortened: as §4

[27] = tested on: false cleavers; assay: Test Example 4: herbicidal effect by soil treatment (Table 19, symbol Q); format: in vivo, false cleavers (Galium spurium); conditions: amount of applied herbicide 320 g/ha
Procedure, shortened: as §2

[28] = tested on: Italian ryegrass; assay: Test Example 5: herbicidal effect by foliage application, plastic box (Table 20, symbol K); format: in vivo, Italian ryegrass (Lolium multiflorum); conditions: amount of applied herbicide 320 g/ha; foliage application after 14-day growth; evaluated three weeks after application
Procedure, shortened: as §1

[29] = tested on: persian speedwell; assay: Test Example 4: herbicidal effect by soil treatment (Table 19, symbol R); format: in vivo, Persian speedwell (Veronica persica); conditions: amount of applied herbicide 320 g/ha
Procedure, shortened: as §2

[30] = tested on: green foxtail; assay: Test Example 5: herbicidal effect by foliage application, plastic box (Table 20, symbol G); format: in vivo, green foxtail (Setaria viridis); conditions: amount of applied herbicide 320 g/ha; foliage application after 14-day growth; evaluated three weeks after application
Procedure, shortened: as §1

[31] = tested on: Chinese sprangletop; assay: Test Example 3: herbicidal effect by foliage application, Wagner pot (Table 18, symbol D); format: in vivo, chinese sprangletop (Leptochloa chinensis); conditions: 320 g/ha
Procedure, shortened: as §4

## CCCC(=O)Oc1c(C)nn(C)c(=O)c1-c1c(-c2ccc3c(c2)OCO3)sc2cc(F)c(F)cc12 [5-036]
[1]
  Herbicidal effect by foliage application, O: lambsquarters: 3 (Herbicidal rate of 40% or more and less than 70%)
[2]
  J: blackgrass, herbicidal effect grade: 0 (Herbicidal rate of 5% or less (almost no effect))
[3]
  Herbicidal effect by foliage application, H: barnyard grass: 0 (Herbicidal rate of 5% or less (almost no effect))
[4]
  Herbicidal effect by foliage application, N: redroot pigweed: 1 (Herbicidal rate of 5% or more and less than 20%)
[5]
  H: barnyard grass, herbicidal effect grade: 0 (Herbicidal rate of 5% or less (almost no effect))
[6]
  I: wild oat, herbicidal effect grade: 0 (Herbicidal rate of 5% or less (almost no effect))
[7]
  Herbicidal effect by foliage application, P: chickweed: 5 (Herbicidal rate of 90% or more (almost completely withered))
[8]
  O: lambsquarters, herbicidal effect grade: 3 (Herbicidal rate of 40% or more and less than 70%)
[9]
  Herbicidal effect, A: late watergrass: 2 (Herbicidal rate of 20% or more and less than 40%)
[10]
  P: chickweed, herbicidal effect grade: 3 (Herbicidal rate of 40% or more and less than 70%)
[11]
  Herbicidal effect by foliage application, L: windgrass: 0 (Herbicidal rate of 5% or less (almost no effect))
[12]
  Herbicidal effect by foliage application, R: persian speedwell: 5 (Herbicidal rate of 90% or more (almost completely withered))
[13]
  K: Italian ryegrass, herbicidal effect grade: 0 (Herbicidal rate of 5% or less (almost no effect))
[14]
  Herbicidal effect by foliage application, I: wild oat: 0 (Herbicidal rate of 5% or less (almost no effect))
[15]
  Herbicidal effect by foliage application, F: southern crabgrass: 0 (Herbicidal rate of 5% or less (almost no effect))
[16]
  Herbicidal effect by foliage application, J: blackgrass: 0 (Herbicidal rate of 5% or less (almost no effect))
[17]
  N: redroot pigweed, herbicidal effect grade: 4 (Herbicidal rate of 70% or more and less than 90%)
[18]
  Herbicidal effect by foliage application, M: velvetleaf: 3 (Herbicidal rate of 40% or more and less than 70%)
[19]
  Herbicidal effect, B: Japanese bulrush: 2 (Herbicidal rate of 20% or more and less than 40%)
[20]
  F: southern crabgrass, herbicidal effect grade: 0 (Herbicidal rate of 5% or less (almost no effect))
[21]
  Herbicidal effect, C: oval-leafed pondweed: 2 (Herbicidal rate of 20% or more and less than 40%)
[22]
  M: velvetleaf, herbicidal effect grade: 0 (Herbicidal rate of 5% or less (almost no effect))
[23]
  herbicidal effect on rice flat sedge (E): 0 (Herbicidal rate of 5% or less (almost no effect))
[24]
  G: green foxtail, herbicidal effect grade: 1 (Herbicidal rate of 5% or more and less than 20%)
[25]
  L: windgrass, herbicidal effect grade: 0 (Herbicidal rate of 5% or less (almost no effect))
[26]
  herbicidal effect on barnyard grass (H): 2 (Herbicidal rate of 20% or more and less than 40%)
[27]
  Q: false cleavers, herbicidal effect grade: 0 (Herbicidal rate of 5% or less (almost no effect))
[28]
  Herbicidal effect by foliage application, K: Italian ryegrass: 0 (Herbicidal rate of 5% or less (almost no effect))
[29]
  R: persian speedwell, herbicidal effect grade: 3 (Herbicidal rate of 40% or more and less than 70%)
[30]
  Herbicidal effect by foliage application, G: green foxtail: 0 (Herbicidal rate of 5% or less (almost no effect))
[31]
  herbicidal effect on Chinese sprangletop (D): 0 (Herbicidal rate of 5% or less (almost no effect))
